Measured values from patent publication US11104883B2, “SC-beta cells and compositions and methods for generating the same” (President and Fellows of Harvard College, priority 2013, dated 2021).

What was measured:
SC-β cells [1] = experiment: Anti-diabetic drug treatment of plated SC-β cells, secreted human insulin ELISA; format: cell-based; settings: 2 and 20 mM glucose
Procedure: FIG. 16A is a schematic illustration of the utility of SC-β cells for treating diabetes or screening drugs to improve function or replication. FIG. 16B is a table listing diabetic drugs investigated and their general therapeutic category. FIG. 16C is a graph showing ELISA measurements of secreted human insulin from plated SC-β cells treated with the indicated drugs in 2 and 20 mM glucose. Indicated p values compare the insulin value in 20 mM glucose between the drug and the control. FIG. 16D is an immunofluorescence image of dispersed and plated SC-β cells stained with DAPI (blue), C-peptide (green), and Ki67 (red) without treatment. FIG. 16E is an immunofluorescence image of dispersed and plated SC-β cells stained with DAPI (blue), C-peptide (green), and Ki67 (red) treated with prolactin for 48 hours. […] FIG. 16G is a graph illustrating fasting blood glucose measurements of Akita mice transplanted with SC-β cells (n=6) or PH cells (n=6). *p<0.05 comparing the two cell groups on the same day. FIG. 16H is a graph illustrating blood glucose measurements from progressively diabetic Akita mice transplanted with SC-β cells or PH cells. Measurements were taken before (white bars) and 20 min after (black bars) a glucose injection of mice transplanted 2 weeks prior. Glucose measurements were saturated at 550 mg/dL. *p<0.05 comparing the two cell groups at the same time post glucose injection. FIG. 16I is a graph showing ELISA measurements of human insulin from the serum of Akita mice 20 min after a glucose injection. Mice were challenged with glucose 2 weeks post transplantation. *p<0.05 comparing the two cell groups. Scale bar-50 μm.
The inventors first tested whether SC-β cells could respond to existing anti-diabetic drugs from several different classes (FIG. 16B). LY2608204 is glucokinase activator in clinical trials while liraglutide, tolbutamide, and nateglinide are examples of GLP-1 agonists and secretagogues (sulfonylureas and meglitinides), respectively, that have been used clinically (Matschinsky, 2009; Modi, 2007; Vetere et al., 2014).

cells in Steps 3-6 = experiment: Modified differentiation protocol (Steps 3-6): cell survival and marker-positive populations; format: cell-based, human; settings: for cell survival: Steps 3-5
Text: FIG. 15A is a schematic illustration of the protocol.
One challenge for the stem cell field has been generating a sufficient quantity of SC-β cells that can be useful for drug screening, disease modeling, or therapeutic use. For example, hES cells are technically difficult to culture, are vulnerable to apoptosis upon cellular detachment and dissociation, undergo massive cell death particularly after complete dissociation, and have low cloning efficiency. (Watanabe, K. et al., Nature Biotechnology 25, 681-686 (2007)). As a result, the quantity of viable SC-β cells yielded may be low. By modify the protocol between Steps 3 and 6 in the manner shown in FIG. 15A, more pure NKX6.1+ endocrine clusters can be generated (FIG. 15B) leading to more SC-β cells that can be therapeutically useful.
In Steps 3-5, for instance, cell survival can be improved by adding a rho-associated protein kinase inhibitor, or a Rock inhibitor. It is believed that the addition of a Rock inhibitor enhances survival of ES cells by preventing dissociation-induced apoptosis thus increasing their cloning efficiency. (Watanabe et al.) Examples of Rock inhibitors include, but are not limited to, Y-27632, Fasudil/HA1077, and H-1152.
In addition to treating the cells with a Rocki inhibitor, the cells in Steps 3-4 can be treated with ActivinA alone or in combination with Nicotinamide. […] Since SOX2 and NKX6-1 are mutually exclusive (FIG. 15E), down-regulation of SOX2 results in the up-regulation of NKX6-1, a marker for a mature pancreatic cell.
In Steps 5-6, cell survival can further be enhanced by treating cells with staurosporine. Staurosporine is known to be an activator of neuronal, glial, and stem cell-like neurosphere differentiation and is also thought to induce apoptosis. (Schumacher, et al., Mol. Cell. Neurosci. 2003; 23(4): 669-680).
Finally, cell survival can further be enhanced by treating cells with a culture medium containing Alk5i, T3 in combination with XXI, a γ-secretase inhibitor that improves β cell maturation.

SC-β cells [2] = experiment: GSIS of SC-β cells after additional factors in the last-step (Stage 6) media; format: cell-based, human; settings: factor added to CMRL media containing Alk5 inhibitor and T3 hormone; versus CMRL only, CMRL+Alk5i+T3, S3+Alk5i+T3
Text: To induce the in vitro maturation of at least some of the Pdx1-positive, NKX6-1-positive, insulin-positive endocrine cells into SC-β cells, the Pdx1-positive, NKX6-1-positive, insulin-positive endocrine cells are maintained in a suitable culture medium for a sufficient period of time. […] Adding additional factors to the CMRL media at the last step of differentiation (Stage 6) (FIG. 14A), however, was also found to generate a better glucose stimulated insulin secretion (GSIS) response by SC-β cells as measured by either stimulation index between high and low glucose challenges or by the amount of insulin released. Such additional factors may include, but are not limited to, Sant1, XXI, and SSP. The stimulation index, as calculated by the ratio of insulin secreted in high glucose (15 mM) to low glucose (2.5 mM), was greater for the SC-β cells maintained in a CMRL media containing Alk5 inhibitor, T3 hormone and either Sant1, XXI or SSP than those SC-β cells maintained in only CMRL media, CMRL media containing Alk5 inhibitor and T3 hormone, or S3 media containing Alk5 inhibitor and T3 hormone (FIG. 14B). Furthermore, the amount of insulin secreted was greater for the SC-β cells maintained in a CMRL media containing Alk5 inhibitor, T3 hormone and either Sant1, XXI or SSP than those SC-β cells maintained in only CMRL media, CMRL media containing Alk5 inhibitor and T3 hormone, or S3 media containing Alk5 inhibitor and T3 hormone (FIG. 14C).
Alternatively, Days 21-35: CMRLS+10 μM Alk5i II+1 μM T3+Sant1.
Alternatively, Days 21-35: CMRLS+10 μM Alk5i II+1 μM T3+XXI.
Alternatively, Days 21-35: CMRLS+10 μM Alk5i II+1 μM T3+SSP.

SC-β cells [3] = experiment: β cell replication: C-peptide and Ki67 staining of plated SC-β cells; format: cell-based, human; settings: SC-β cells treated with prolactin for 48 hours
Procedure: FIG. 16A is a schematic illustration of the utility of SC-β cells for treating diabetes or screening drugs to improve function or replication. FIG. 16B is a table listing diabetic drugs investigated and their general therapeutic category. FIG. 16C is a graph showing ELISA measurements of secreted human insulin from plated SC-β cells treated with the indicated drugs in 2 and 20 mM glucose. Indicated p values compare the insulin value in 20 mM glucose between the drug and the control. FIG. 16D is an immunofluorescence image of dispersed and plated SC-β cells stained with DAPI (blue), C-peptide (green), and Ki67 (red) without treatment. FIG. 16E is an immunofluorescence image of dispersed and plated SC-β cells stained with DAPI (blue), C-peptide (green), and Ki67 (red) treated with prolactin for 48 hours. […] FIG. 16G is a graph illustrating fasting blood glucose measurements of Akita mice transplanted with SC-β cells (n=6) or PH cells (n=6). *p<0.05 comparing the two cell groups on the same day. […]
Cells were dispersed and plated onto 96 well plates. […] The percentage of target cell-types was quantified using the Array Scan Cellomics high-content screening system. Here 30 images were acquired per well and quantified. Cells labeled by antibody staining and total cell number (based on DAPI nuclei staining) were quantified to obtain percentages of target cell types.

O=C(Nc1ncc(SCCN2CCCC2)s1)[C@]1(c2ccc(S(=O)(=O)C3CC3)cc2)C[C@H]1C1CCCCC1 [LY2608204]
insulin secretion in vitro following a glucose challenge (SC-β cells [1]): increasing insulin secretion

NC(=O)c1cccnc1 [Nicotinamide]
cell survival (cells in Steps 3-6): improve cell survival

Cc1nn(-c2ccccc2)c(C)c1/C=N/N1CCN(Cc2ccccc2)CC1 [Sant1]
amount of insulin secreted (SC-β cells [2]): greater | stimulation index, ratio of insulin secreted in high glucose (15 mM) to low glucose (2.5 mM) (SC-β cells [2]): greater

C[C@H](NC(=O)Cc1cc(F)cc(F)c1)C(=O)N[C@H]1N=C(c2ccccc2)c2ccccc2N(C)C1=O [XXI]
amount of insulin secreted (SC-β cells [2]): greater | stimulation index, ratio of insulin secreted in high glucose (15 mM) to low glucose (2.5 mM) (SC-β cells [2]): greater | NeuroD1+ population (cells in Steps 3-6; added to medium with Alk5i and T3 at Steps 5 and 6): increase the NeuroD1+ population

CC(C)[C@H]1CC[C@H](C(=O)N[C@H](Cc2ccccc2)C(=O)O)CC1 [nateglinide]
insulin secretion in vitro following a glucose challenge (SC-β cells [1]): increasing insulin secretion

CN[C@@H]1C[C@H]2O[C@@](C)([C@@H]1OC)n1c3ccccc3c3c4c(c5c6ccccc6n2c5c31)C(=O)NC4 [staurosporine]
percentage of ChromograninA (cells in Steps 3-6; Steps 5-6): increasing the percentage of ChromograninA | percentage of NKX6-1/C-peptide+ cells (cells in Steps 3-6; Steps 5-6): increasing the percentage of NKX6-1.C-peptide+ cells

CCCCNC(=O)NS(=O)(=O)c1ccc(C)cc1 [tolbutamide]
insulin secretion in vitro following a glucose challenge (SC-β cells [1]): increasing insulin secretion

B1: Activin A: growth factor from the TGF-β superfamily (protein, UniProt P08476 311-426, looked up)
Inhibin beta A chain: GLECDGKVNICCKKQFFVSFKDIGWNDWIIAPSGYHANYCEGECPSHIAGTSGSSLSFHSTVINHYRMRGHSPFANLKSCCVPTKLRPMSMLYYDDGQNIIKKDIQNMIVEECGCS
modifications: Inhibin beta A chain
notes: growth factor from the TGF-β superfamily
cell survival (cells in Steps 3-6): improve cell survival

B2: prolactin: hormone tested for β cell replication (protein, UniProt P01236 29-227, looked up)
Prolactin: LPICPGGAARCQVTLRDLFDRAVVLSHYIHNLSSEMFSEFDKRYTHGRGFITKAINSCHTSSLATPEDKEQAQQMNQKDFLSLIVSILRSWNEPLYHLVTEVRGMQEAPEAILSKAVEIEEQTKRLLEGMELIVSQVHPETKENEIYPVWSGLPSLQMADEESRLSAYYNLLHCLRRDSHKIDNYLKLLKCRIIHNNNC
Ki67+/C-peptide+ cells (SC-β cells [3]): 0.39±0.08%
